Earlier results as cited in patent publication US11992559B2, “Microsphere formulations comprising lurasidone and methods for making and using the same” (Oakwood Laboratories, LLC, priority 2021, dated 2024).
Structures can show the parent of a compound that is named as a salt.

Assays:
[1] = at 25° C.

In the case of `O=C1[C@@H]2[C@H]3CC[C@H](C3)[C@@H]2C(=O)N1C[C@@H]1CCCC[C@H]1CN1CCN(c2nsc3ccccc23)CC1` [lurasidone HCl, Lurasidone], the “specific hydrophobicity log Pow” value [1] is given as 5.6, the “solubility in benzyl alcohol” value (benzyl alcohol) is given as 69.19 mg/g and the solubility in dichloromethane (dichloromethane) is given as 24.43 mg/g. The water solubility (water) was 224 µg/mL.
